Laboratory results reported in ChEMBL document CHEMBL3885881, “DrugMatrix”.

Species on record: Rattus norvegicus
Experiment: DrugMatrix - Regimen: Daily Repeat
Type: toxicity, organism-based, Sprague-Dawley
Set-up: regimen Daily Repeat, gender Male, age 6-8 weeks
Settings: in vivo, po, route oral GAVAGE, vehicle .5 % CMC; for ABSOLUTE BASOPHIL / ABSOLUTE EOSINOPHIL / ABSOLUTE LYMPHOCYTE / ABSOLUTE MONOCYTE / ABSOLUTE SEGMENTED NEUTROPHIL / BASOPHIL / EOSINOPHIL / ERYTHROCYTE COUNT / HEMATOCRIT / HEMOGLOBIN / LEUKOCYTE COUNT / LYMPHOCYTE / MEAN CORPUSCULAR HEMOGLOBIN / MEAN CORPUSCULAR HEMOGLOBIN CONCENTRATION / MEAN CORPUSCULAR VOLUME / MONOCYTE / NEUTROPHIL / NUCLEATED RED BLOOD CELLS / PLATELET COUNT: tissue Blood; for ALANINE AMINOTRANSFERASE / ALBUMIN / ALKALINE PHOSPHATASE / ASPARTATE AMINOTRANSFERASE / BLOOD UREA NITROGEN / CARBON DIOXIDE / CHLORIDE / CHOLESTEROL / CREATINE PHOSPHOKINASE / CREATININE / GLUCOSE / LACTATE DEHYDROGENASE / LIPASE / PHOSPHORUS / POTASSIUM / SODIUM / TOTAL BILIRUBIN / TOTAL PROTEIN / URIC ACID: tissue Plasma
[1] = 10 mg/kg, 72 h, dose level Low, time 3 day
[2] = 10 mg/kg, 120 h, dose level Low, time 5 day
[3] = 1200 mg/kg, 72 h, dose level High, time 3 day
[4] = 1200 mg/kg, 120 h, dose level High, time 5 day

CC(C)c1nc(CN(C)C(=O)N[C@H](C(=O)N[C@@H](Cc2ccccc2)C[C@H](O)[C@H](Cc2ccccc2)NC(=O)OCc2cncs2)C(C)C)cs1 [RITONAVIR]
ABSOLUTE BASOPHIL [1]: 0 CELLS/uL
ABSOLUTE EOSINOPHIL [1]: 0 CELLS/uL
ABSOLUTE LYMPHOCYTE [1]: 16363 CELLS/uL
ABSOLUTE MONOCYTE [1]: 133.67 CELLS/uL
ABSOLUTE SEGMENTED NEUTROPHIL [1]: 2103.33 CELLS/uL
BASOPHIL [1]: 0%
EOSINOPHIL [1]: 0%
ERYTHROCYTE COUNT [1]: 5.55 x10E6/uL
HEMATOCRIT [1]: 35.17%
HEMOGLOBIN [1]: 13.33 G/DL
LEUKOCYTE COUNT [1]: 18.6 x10E3/uL
LYMPHOCYTE [1]: 88%
MEAN CORPUSCULAR HEMOGLOBIN [1]: 24.03 pg
MEAN CORPUSCULAR HEMOGLOBIN CONCENTRATION [1]: 37.93 G/DL
MEAN CORPUSCULAR VOLUME [1]: 63.37 fL
MONOCYTE [1]: 0.67%
NEUTROPHIL [1]: 11.33%
NUCLEATED RED BLOOD CELLS [1]: 0 /100WBC
PLATELET COUNT [1]: 1318 x10E3/uL
ALANINE AMINOTRANSFERASE [1]: 56.67 u/L
ALBUMIN [1]: 4.1 G/DL
ALKALINE PHOSPHATASE [1]: 325.33 u/L
ASPARTATE AMINOTRANSFERASE [1]: 93.33 u/L
BLOOD UREA NITROGEN [1]: 14 mg/dL
CARBON DIOXIDE [1]: 29 mmol/L
CHLORIDE [1]: 101 MEQ/L
CHOLESTEROL [1]: 90.67 mg/dL
CREATINE PHOSPHOKINASE [1]: 297.33 u/L
CREATININE [1]: 0.23 mg/dL
GLUCOSE [1]: 152 mg/dL
LACTATE DEHYDROGENASE [1]: 319.33 u/L
LIPASE [1]: 10.67 u/L
PHOSPHORUS [1]: 12.83 mg/dL
POTASSIUM [1]: 6.89 MEQ/L
SODIUM [1]: 145.67 MEQ/L
TOTAL BILIRUBIN [1]: 0.13 mg/dL
TOTAL PROTEIN [1]: 5.77 G/DL
URIC ACID [1]: 1.67 mg/dL
ABSOLUTE BASOPHIL [2]: 0 CELLS/uL
ABSOLUTE EOSINOPHIL [2]: 71.67 CELLS/uL
ABSOLUTE LYMPHOCYTE [2]: 18278.33 CELLS/uL
ABSOLUTE MONOCYTE [2]: 105.33 CELLS/uL
ABSOLUTE SEGMENTED NEUTROPHIL [2]: 1678 CELLS/uL
BASOPHIL [2]: 0%
EOSINOPHIL [2]: 0.33%
ERYTHROCYTE COUNT [2]: 6.19 x10E6/uL
HEMATOCRIT [2]: 37%
HEMOGLOBIN [2]: 13.97 G/DL
LEUKOCYTE COUNT [2]: 20.13 x10E3/uL
LYMPHOCYTE [2]: 90.33%
MEAN CORPUSCULAR HEMOGLOBIN [2]: 22.63 pg
MEAN CORPUSCULAR HEMOGLOBIN CONCENTRATION [2]: 37.73 G/DL
MEAN CORPUSCULAR VOLUME [2]: 59.93 fL
MONOCYTE [2]: 0.67%
NEUTROPHIL [2]: 8.67%
NUCLEATED RED BLOOD CELLS [2]: 0 /100WBC
PLATELET COUNT [2]: 1433.33 x10E3/uL
ALANINE AMINOTRANSFERASE [2]: 50.67 u/L
ALBUMIN [2]: 4.4 G/DL
ALKALINE PHOSPHATASE [2]: 359.67 u/L
ASPARTATE AMINOTRANSFERASE [2]: 81.67 u/L
BLOOD UREA NITROGEN [2]: 15.33 mg/dL
CARBON DIOXIDE [2]: 27.67 mmol/L
CHLORIDE [2]: 102 MEQ/L
CHOLESTEROL [2]: 79.67 mg/dL
CREATINE PHOSPHOKINASE [2]: 237 u/L
CREATININE [2]: 0.21 mg/dL
GLUCOSE [2]: 148.67 mg/dL
LACTATE DEHYDROGENASE [2]: 188 u/L
LIPASE [2]: 9.33 u/L
PHOSPHORUS [2]: 13.17 mg/dL
POTASSIUM [2]: 6.85 MEQ/L
SODIUM [2]: 145.83 MEQ/L
TOTAL BILIRUBIN [2]: 0.17 mg/dL
URIC ACID [2]: 1.63 mg/dL
ABSOLUTE BASOPHIL [3]: 0 CELLS/uL
ABSOLUTE EOSINOPHIL [3]: 142.67 CELLS/uL
ABSOLUTE LYMPHOCYTE [3]: 15572 CELLS/uL
ABSOLUTE MONOCYTE [3]: 334 CELLS/uL
ABSOLUTE SEGMENTED NEUTROPHIL [3]: 651.33 CELLS/uL
BASOPHIL [3]: 0%
EOSINOPHIL [3]: 0.67%
ERYTHROCYTE COUNT [3]: 5.91 x10E6/uL
HEMATOCRIT [3]: 36.97%
HEMOGLOBIN [3]: 14.63 G/DL
LEUKOCYTE COUNT [3]: 16.7 x10E3/uL
LYMPHOCYTE [3]: 93.67%
MEAN CORPUSCULAR HEMOGLOBIN [3]: 24.77 pg
MEAN CORPUSCULAR HEMOGLOBIN CONCENTRATION [3]: 39.6 G/DL
MEAN CORPUSCULAR VOLUME [3]: 62.53 fL
MONOCYTE [3]: 2%
NEUTROPHIL [3]: 3.67%
NUCLEATED RED BLOOD CELLS [3]: 0 /100WBC
PLATELET COUNT [3]: 1284 x10E3/uL
ALANINE AMINOTRANSFERASE [3]: 50 u/L
ALBUMIN [3]: 3.97 G/DL
ALKALINE PHOSPHATASE [3]: 314 u/L
ASPARTATE AMINOTRANSFERASE [3]: 75 u/L
BLOOD UREA NITROGEN [3]: 13.67 mg/dL
CARBON DIOXIDE [3]: 31.67 mmol/L
CHLORIDE [3]: 100.33 MEQ/L
CHOLESTEROL [3]: 86.67 mg/dL
CREATINE PHOSPHOKINASE [3]: 162.33 u/L
CREATININE [3]: 0.16 mg/dL
GLUCOSE [3]: 153.67 mg/dL
LACTATE DEHYDROGENASE [3]: 134.67 u/L
LIPASE [3]: 10.33 u/L
PHOSPHORUS [3]: 11.4 mg/dL
POTASSIUM [3]: 5.99 MEQ/L
SODIUM [3]: 144.87 MEQ/L
TOTAL BILIRUBIN [3]: 0.2 mg/dL
TOTAL PROTEIN [3]: 5.67 G/DL
URIC ACID [3]: 1.33 mg/dL
ABSOLUTE BASOPHIL [4]: 0 CELLS/uL
ABSOLUTE EOSINOPHIL [4]: 0 CELLS/uL
ABSOLUTE LYMPHOCYTE [4]: 16888.67 CELLS/uL
ABSOLUTE MONOCYTE [4]: 206.67 CELLS/uL
ABSOLUTE SEGMENTED NEUTROPHIL [4]: 871.33 CELLS/uL
BASOPHIL [4]: 0%
EOSINOPHIL [4]: 0%
ERYTHROCYTE COUNT [4]: 6.28 x10E6/uL
HEMATOCRIT [4]: 37.7%
HEMOGLOBIN [4]: 14.77 G/DL
LEUKOCYTE COUNT [4]: 17.97 x10E3/uL
LYMPHOCYTE [4]: 94%
MEAN CORPUSCULAR HEMOGLOBIN [4]: 23.53 pg
MEAN CORPUSCULAR HEMOGLOBIN CONCENTRATION [4]: 39.17 G/DL
MEAN CORPUSCULAR VOLUME [4]: 60.2 fL
MONOCYTE [4]: 1%
NEUTROPHIL [4]: 5%
NUCLEATED RED BLOOD CELLS [4]: 0 /100WBC
PLATELET COUNT [4]: 1230 x10E3/uL
ALANINE AMINOTRANSFERASE [4]: 59.67 u/L
ALBUMIN [4]: 4 G/DL
ALKALINE PHOSPHATASE [4]: 219 u/L
ASPARTATE AMINOTRANSFERASE [4]: 104.67 u/L
BLOOD UREA NITROGEN [4]: 16 mg/dL
CARBON DIOXIDE [4]: 22.33 mmol/L
CHLORIDE [4]: 106 MEQ/L
CHOLESTEROL [4]: 79 mg/dL
CREATINE PHOSPHOKINASE [4]: 482 u/L
CREATININE [4]: 0.24 mg/dL
GLUCOSE [4]: 155.33 mg/dL
LACTATE DEHYDROGENASE [4]: 180.33 u/L
LIPASE [4]: 10.67 u/L
PHOSPHORUS [4]: 10.5 mg/dL
POTASSIUM [4]: 7.89 MEQ/L
SODIUM [4]: 148.6 MEQ/L
TOTAL BILIRUBIN [4]: 0.17 mg/dL
TOTAL PROTEIN [4]: 6.03 G/DL
URIC ACID [4]: 1.8 mg/dL
